Where two headings read alike, the source gives them in different places.
How the values were obtained:
Experiment in all cases: Drug-drug interaction, CYP inhibition in human liver microsomes, cocktail method
Assay type in all cases: in vitro ADME
CYP1A2 = biological target: T1, CYP1A2 (Homo sapiens, UniProt P05177)
T1 construct: from tissue; host or cells: human liver microsomes
T1 sequence (P05177 1-516): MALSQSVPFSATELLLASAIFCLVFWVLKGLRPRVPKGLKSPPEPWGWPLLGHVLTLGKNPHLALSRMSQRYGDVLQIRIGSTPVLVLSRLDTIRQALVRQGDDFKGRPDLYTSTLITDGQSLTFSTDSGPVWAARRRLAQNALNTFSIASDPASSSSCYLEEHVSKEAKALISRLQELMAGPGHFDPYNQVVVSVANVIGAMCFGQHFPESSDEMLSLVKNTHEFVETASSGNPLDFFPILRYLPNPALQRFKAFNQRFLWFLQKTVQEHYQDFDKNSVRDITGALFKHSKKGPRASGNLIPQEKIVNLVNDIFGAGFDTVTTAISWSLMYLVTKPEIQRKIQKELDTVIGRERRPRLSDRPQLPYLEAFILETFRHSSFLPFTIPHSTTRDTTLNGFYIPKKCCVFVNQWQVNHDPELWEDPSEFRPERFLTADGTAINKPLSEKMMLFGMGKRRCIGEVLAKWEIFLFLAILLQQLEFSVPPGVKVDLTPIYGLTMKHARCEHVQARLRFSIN
Method: (§1) The inhibitory effects of compounds on the activity of human liver microsomal cytochrome P450 isoenzymes (CYP1A2, CYP2C9, CYP2C19, CYP2D6, and CYP3A) were evaluated using a cocktail method with specific probe substrates for CYP1A2, CYP2C9, CYP2C19, CYP2D6, and CYP3A.
(§2) Human liver microsomes, probe substrates, positive control inhibitor, and reduced nicotinamide adenine dinucleotide phosphate.
(§3) 20 µL of a substrate solution was added to the corresponding well of a reaction plate, and 20 µL of potassium phosphate buffer was added to the blank wells.
(§4) 2 µL of a test compound working solution and positive control working solution were added to the corresponding wells, and 2 µL of solvent was added to the inhibitor-free wells and blank wells.
(§5) Human liver microsomal working solution was prepared, and 158 µL of human liver microsomal working solution was added to each well of the reaction plate.
(§6) The reaction plate was preheated at 37.0 °C for 10 minutes.
(§7) 20 µL of NADPH cofactor working solution was added to the reaction plate to initiate the reaction.
(§8) The mixture was mixed and incubated in a 37.0 °C water bath for 10 minutes, and 400 µL of stop solution was added to the reaction plate to terminate the reaction.
(§9) The sample plate was placed in a centrifuge, and centrifuged at 4000 rpm for 20 minutes.
(§10) 200 µL of supernatant was taken out, and appropriate 100 µL of pure water was added for dilution. The plate was shaken until the mixture was mixed well.
(§11) The analysis was performed using liquid chromatography-tandem mass spectrometry (LC-MS/MS).
(§12) The IC50 values of the assay samples were calculated by performing a three-parameter or four-parameter nonlinear regression analysis using XL fit software, with the remaining percentage of activity as the ordinate and the assay sample concentration as the abscissa. When the IC50 obtained by fitting with XL fit software was greater than the maximum administration concentration (50.0 µM) or IC50 could not be obtained by fitting, the IC50 value was marked as ">50.0 µM".
(§13) Three-parameter equation: y = (max)/(1 + (((x)/(IC50)))^−hillslope) [formula]
(§14) Four-parameter equation: y = min + (max−min)/(1 + (((x)/(IC50)))^−hillslope) [formula] max: maximum enzyme activity; min: minimum enzyme activity; x: concentration of the assay sample or positive control inhibitor; y: enzyme activity at the corresponding concentration; hillslope: slope; IC50: half-maximal inhibitory concentration; the four-parameter equation was used when the minimum enzyme activity was within ±10%, otherwise the three-parameter equation was used. Drug-drug interaction assay results of the compounds of the present disclosure

CYP2C19 = biological target: T2, CYP2C19 (Homo sapiens, UniProt P33261)
T2 construct: from tissue; host or cells: human liver microsomes
Method: as §1, §2, §3, §4, §5, §6, §7, §8, §9, §10, §11, §12, §13, §14

CYP2C9 = biological target: T3, CYP2C9 (Homo sapiens, UniProt P11712)
T3 construct: from tissue; host or cells: human liver microsomes
Method: as §1, §2, §3, §4, §5, §6, §7, §8, §9, §10, §11, §12, §13, §14

CYP2D6 = biological target: T4, CYP2D6 (Homo sapiens, UniProt P10635)
T4 construct: from tissue; host or cells: human liver microsomes
Method: as §1, §2, §3, §4, §5, §6, §7, §8, §9, §10, §11, §12, §13, §14

CYP3A4 = CYP3A4 (Homo sapiens, UniProt P08684)
Method: as §1, §2, §3, §4, §5, §6, §7, §8, §9, §10, §11, §12, §13, §14

[1] = human liver microsomes, maximum concentration 50.0 µM, read-out: CYP 1A2 (IC50)
[2] = human liver microsomes, maximum concentration 50.0 µM, read-out: CYP 2C19 (IC50)
[3] = human liver microsomes, maximum concentration 50.0 µM, read-out: CYP 2C9 (IC50)
[4] = human liver microsomes, maximum concentration 50.0 µM, read-out: CYP 2D6 (IC50)
[5] = human liver microsomes, maximum concentration 50.0 µM, read-out: CYP 3A4 (IC50)

T2 sequence (P33261 whole entry): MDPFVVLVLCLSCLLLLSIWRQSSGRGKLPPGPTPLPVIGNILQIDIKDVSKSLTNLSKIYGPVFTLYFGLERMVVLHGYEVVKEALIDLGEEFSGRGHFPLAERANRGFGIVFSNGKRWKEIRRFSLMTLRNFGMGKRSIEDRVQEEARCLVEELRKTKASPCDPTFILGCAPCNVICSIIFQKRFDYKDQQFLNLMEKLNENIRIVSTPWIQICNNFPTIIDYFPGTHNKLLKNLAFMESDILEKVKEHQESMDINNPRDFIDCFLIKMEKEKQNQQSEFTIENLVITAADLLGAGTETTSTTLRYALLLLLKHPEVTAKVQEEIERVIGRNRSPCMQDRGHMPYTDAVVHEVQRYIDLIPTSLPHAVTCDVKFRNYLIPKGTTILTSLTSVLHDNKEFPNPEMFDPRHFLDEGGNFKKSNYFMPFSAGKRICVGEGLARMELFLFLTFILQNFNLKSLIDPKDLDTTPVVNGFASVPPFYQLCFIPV
Chain of CYP3A4 (P08684 2-503): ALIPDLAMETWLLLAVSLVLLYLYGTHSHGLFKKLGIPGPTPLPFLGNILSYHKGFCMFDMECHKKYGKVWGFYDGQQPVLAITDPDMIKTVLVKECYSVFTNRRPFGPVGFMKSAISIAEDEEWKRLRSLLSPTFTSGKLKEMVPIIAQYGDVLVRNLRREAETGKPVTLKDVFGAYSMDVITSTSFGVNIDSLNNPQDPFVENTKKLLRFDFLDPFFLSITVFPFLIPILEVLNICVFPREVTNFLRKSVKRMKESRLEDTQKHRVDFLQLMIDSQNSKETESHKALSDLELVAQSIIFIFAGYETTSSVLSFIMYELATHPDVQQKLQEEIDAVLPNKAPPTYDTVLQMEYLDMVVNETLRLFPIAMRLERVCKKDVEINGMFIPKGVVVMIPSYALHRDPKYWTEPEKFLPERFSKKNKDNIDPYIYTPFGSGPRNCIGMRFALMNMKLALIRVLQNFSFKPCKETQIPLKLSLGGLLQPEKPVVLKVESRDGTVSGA
T3 sequence (P11712 whole entry): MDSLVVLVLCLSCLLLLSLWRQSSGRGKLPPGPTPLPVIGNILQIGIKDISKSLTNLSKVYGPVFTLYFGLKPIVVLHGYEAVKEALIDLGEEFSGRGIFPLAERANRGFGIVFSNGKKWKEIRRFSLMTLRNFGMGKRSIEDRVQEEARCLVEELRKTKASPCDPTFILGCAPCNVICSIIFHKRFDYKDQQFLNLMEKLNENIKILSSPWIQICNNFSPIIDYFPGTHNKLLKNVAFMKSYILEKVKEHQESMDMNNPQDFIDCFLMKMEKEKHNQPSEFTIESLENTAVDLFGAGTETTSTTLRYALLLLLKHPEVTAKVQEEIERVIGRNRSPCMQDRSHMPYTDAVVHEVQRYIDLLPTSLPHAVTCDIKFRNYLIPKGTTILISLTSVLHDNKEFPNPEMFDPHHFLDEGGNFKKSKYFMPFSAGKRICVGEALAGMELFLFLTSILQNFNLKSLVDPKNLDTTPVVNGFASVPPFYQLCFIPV
T4 sequence (P10635 whole entry): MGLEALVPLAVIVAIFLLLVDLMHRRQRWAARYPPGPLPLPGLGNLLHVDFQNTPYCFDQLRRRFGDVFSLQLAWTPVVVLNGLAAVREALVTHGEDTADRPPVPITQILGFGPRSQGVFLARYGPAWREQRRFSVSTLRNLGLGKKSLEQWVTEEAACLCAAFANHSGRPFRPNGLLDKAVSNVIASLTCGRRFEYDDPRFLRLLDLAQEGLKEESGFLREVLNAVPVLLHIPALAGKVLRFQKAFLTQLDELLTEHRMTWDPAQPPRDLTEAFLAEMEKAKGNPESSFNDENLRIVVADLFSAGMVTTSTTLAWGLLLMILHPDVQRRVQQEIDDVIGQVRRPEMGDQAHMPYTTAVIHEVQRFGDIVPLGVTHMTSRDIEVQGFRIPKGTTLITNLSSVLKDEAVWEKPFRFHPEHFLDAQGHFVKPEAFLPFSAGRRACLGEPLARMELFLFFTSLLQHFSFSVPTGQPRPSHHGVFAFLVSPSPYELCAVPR

| SMILES | IC50 (CYP1A2; [1]) [µM] | IC50 (CYP2C19; [2]) [µM] | IC50 (CYP2C9; [3]) [µM] | IC50 (CYP2D6; [4]) [µM] | IC50 at 10 min (CYP3A4; [5]) [µM] | IC50 (CYP1A2) [µM] | IC50 (CYP2C19) [µM] | IC50 (CYP2C9) [µM] | IC50 (CYP2D6) [µM] | IC50 at 10 min (CYP3A4; human, microsomes) [µM] |
| --- | --- | --- | --- | --- | --- | --- | --- | --- | --- | --- |
| CC(C)(C)CC(=O)Nc1nc2c(C(F)(F)F)cc(C#N)cn2c1C12CC(C1)C2 [Compound 6] | > 50 | > 50 | > 50 | > 50 | > 50 |  |  |  |  |  |
| CC(C)(C)CC(=O)Nc1nc2c(F)cc(C#N)cn2c1C12CC(C1)C2 [Compound 5] | > 50 | > 50 | > 50 | > 50 | > 50 |  |  |  |  |  |
| CC(C)(C)CC(=O)Nc1nc2c(F)cc(C#N)cn2c1C1=CCCC1 [Compound 3] | > 50 | > 50 | > 50 | > 50 | > 50 |  |  |  |  |  |
| CC(C)(C)CC(=O)Nc1nc2c(F)cc(C#N)cn2c1-c1ccc(OC(F)(F)F)cc1 [Compound 1] |  |  |  |  |  | > 50 | 31 | 46 | 42 | 14 |
